In patent US20060024661A1, “Modulation of CRF potentiation of NMDA receptor currents via CRF receptor 2” (The Regents of the University of California, priority 2003, published 2006):
“Also recorded” adds a separate entry of the source. Where no end group is shown, it is not given here.

Experiments:
[1] = test system: NMDAR-mediated EPSCs in VTA dopamine neurons; test: NMDAR-mediated EPSCs, whole-cell voltage-clamp in VTA slices; type: cell-based, mice; conditions: for potentiation of NMDAR-mediated EPSCs: +40 mV
Experimental: VTA slices from 21-29 day old C57 mice (Charles River) were prepared as previously described (Ungless et al. (2001). Nature 411: 584-587). Briefly, mice were anesthetized with halothane and then decapitated. A block of tissue containing midbrain was sliced in the horizontal plane (230 μm) in ice-cold low Ca^2+ solution (containing in mM: 126 NaCl, 1.6 KCl, 1.2 NaH2PO4, 1.2 MgCl2, 0.625 CaCl2, 18 NaHCO3 and 11 glucose). Slices were transferred to a holding chamber containing artificial cerebrospinal fluid (ACSF, in mM: 126 NaCl, 1.6 KCl, 1.2 NaH2PO4, 1.2 MgCl2, 2.5 CaCl2, 18 NaHCO3 and 11 glucose) and equilibrated at 31-34° C. for at least 1 h. Picrotoxin (100 μM) was added to the ACSF for recording, to block GABAA receptor-mediated inhibitory postsynaptic potentials. All solutions were aerated with 95% O2/5% CO2, and perfused over the slice at a rate of 2.5 ml/min. Cells were visualized with an upright microscope using infrared differential interference contrast (IR-DIC) illumination and whole-cell voltage-clamp recordings were made with an Axopatch 1D amplifier (Axon Instruments). Electrodes (2-4 MΩ) contained in mM: 117 cesium methansulfonic acid, 20 HEPES, 0.4 EGTA, 2.8 NaCl, 5 TEA-Cl, 2.5 MgATP, 0.25 MgGTP, pH 7.2-7.4, 275-285 mOsm. Dopamine cells were identified by the presence of an Ih current. A bipolar stimulating electrode was placed 100-300 μm rostral to the recording electrode and was used to stimulate excitatory afferents at 0.1 Hz. Neurons were voltage-clamped at +40 mV. Coronal hippocampal slices were also prepared and maintained in a similar manner. Extracellular field potentials were recorded in the CA1 region and evoked by stimulating the stratum radiatum. All drugs were obtained from Sigma, except human/rat CRF (Tocris), Antisauvagine-30 (PolyPeptide) and CP-154,526 (a generous gift from Pfizer). CRF fragment (6-33), ovine CRF, Antisauvagine-30, CP-154,526, U-73122 and Urocortin were first dissolved in DMSO (final concentration 0.1%). EPSCs were filtered at 2 kHz, digitized at 5-10 kHz and stored using Igor Pro software (Wavemetrics). AMPAR-mediated EPSCs were recorded at −70 mV; NMDAR-mediated EPSCs were recorded at +40 mV and measured 20 msec after the stimulation artifact when the EPSC is primarily NMDAR-mediated (11,13). Statistical significance was assessed using ANOVA on 5 min bins of EPSCs, and post hoc Fisher's LSD where appropriate.
We measured excitatory postsynaptic currents (EPSCs) recorded in putative dopamine neurons in midbrain slices from mice. EPSCs were evoked while holding neurons in voltage-clamp at +40 mV; measurements were taken at a time point when the EPSC is purely NMDA-receptor-mediated (see Methods) (Bonci and Malenka (1999). J Neurosci. 19: 3723-3730; Ungless et al. (2001). Nature 411: 584-587). […] To facilitate our subsequent investigation of the effects of CRF, we therefore sought to identify a characteristic that might help us determine, a priori, to which group a particular neuron belongs. […] We noticed that, typically, neurons that responded to CRF had large Ih currents (FIG. 1B). […] Henceforth, all subsequent experiments were conducted on cells with an Ih greater than 100 pA.

[2] = test system: field potentials in hippocampus CA1 (CRF-R1 mediated); test: Extracellular field potentials in hippocampal slices (CA1); type: cell-based, mice
Description: A bipolar stimulating electrode was placed 100-300 μm rostral to the recording electrode and was used to stimulate excitatory afferents at 0.1 Hz.

NMDARs = conditions: derived from cell lines; Patneau and Mayer 1990; cited from earlier work
CRF-BP = molecular target: T1, CRF-BP (Homo sapiens, UniProt P24387); conditions: in words; cited from earlier work
T1 sequence (P24387 25-322): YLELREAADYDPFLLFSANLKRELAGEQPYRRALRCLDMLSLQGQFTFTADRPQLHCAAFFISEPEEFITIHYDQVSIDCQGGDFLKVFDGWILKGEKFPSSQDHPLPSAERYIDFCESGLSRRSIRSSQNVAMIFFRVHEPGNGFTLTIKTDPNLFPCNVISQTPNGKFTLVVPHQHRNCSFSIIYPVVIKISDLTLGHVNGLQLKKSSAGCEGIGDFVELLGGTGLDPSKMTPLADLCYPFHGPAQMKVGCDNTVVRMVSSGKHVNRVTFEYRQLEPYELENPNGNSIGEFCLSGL

[3] = test system: AMPAR-mediated EPSCs in VTA dopamine neurons; test: AMPAR-mediated EPSCs, whole-cell voltage-clamp in VTA slices; type: cell-based, mice; conditions: CRF 1 μM; voltage-clamp at -70 mV; n=4
Experimental: VTA slices from 21-29 day old C57 mice (Charles River) were prepared as previously described (Ungless et al. (2001). Nature 411: 584-587). Briefly, mice were anesthetized with halothane and then decapitated. A block of tissue containing midbrain was sliced in the horizontal plane (230 μm) in ice-cold low Ca^2+ solution (containing in mM: 126 NaCl, 1.6 KCl, 1.2 NaH2PO4, 1.2 MgCl2, 0.625 CaCl2, 18 NaHCO3 and 11 glucose). Slices were transferred to a holding chamber containing artificial cerebrospinal fluid (ACSF, in mM: 126 NaCl, 1.6 KCl, 1.2 NaH2PO4, 1.2 MgCl2, 2.5 CaCl2, 18 NaHCO3 and 11 glucose) and equilibrated at 31-34° C. for at least 1 h. Picrotoxin (100 μM) was added to the ACSF for recording, to block GABAA receptor-mediated inhibitory postsynaptic potentials. All solutions were aerated with 95% O2/5% CO2, and perfused over the slice at a rate of 2.5 ml/min. […] Extracellular field potentials were recorded in the CA1 region and evoked by stimulating the stratum radiatum. […] AMPAR-mediated EPSCs were recorded at −70 mV; NMDAR-mediated EPSCs were recorded at +40 mV and measured 20 msec after the stimulation artifact when the EPSC is primarily NMDAR-mediated (11,13). Statistical significance was assessed using ANOVA on 5 min bins of EPSCs, and post hoc Fisher's LSD where appropriate. […]

cAMP in Ltk- cells = conditions: CRF 1 μM; Lovenberg et al. 1995; cited from earlier work
CRF-R1 = molecular target: T2, CRF-R1 (Homo sapiens, UniProt P34998); conditions: in words; cited from earlier work
T2 sequence (P34998 24-415): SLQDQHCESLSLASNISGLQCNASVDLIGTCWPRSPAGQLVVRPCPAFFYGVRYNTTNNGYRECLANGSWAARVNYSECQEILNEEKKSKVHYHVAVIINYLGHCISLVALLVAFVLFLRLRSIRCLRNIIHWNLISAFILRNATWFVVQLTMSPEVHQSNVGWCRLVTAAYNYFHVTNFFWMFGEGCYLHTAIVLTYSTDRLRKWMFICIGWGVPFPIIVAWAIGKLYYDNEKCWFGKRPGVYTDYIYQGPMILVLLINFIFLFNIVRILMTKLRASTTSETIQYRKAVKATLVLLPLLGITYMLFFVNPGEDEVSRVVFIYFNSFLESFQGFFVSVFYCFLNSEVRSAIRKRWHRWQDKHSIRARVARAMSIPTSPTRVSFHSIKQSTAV

[4] = peptide 1 μM for 8 min, small Ih (non-responding) dopamine neurons
[5] = peptide bath applied 1 μM for 8 min, large Ih (CRF-responding) dopamine neurons

## CCCCN(CC)c1nc(C)nc2c1c(C)cn2-c1c(C)cc(C)cc1C [CP-154,526]
[1]; CP-154,526 3 μM for 15 min, CRF 1 μM, n=6
  block of CRF-induced potentiation of NMDAR-mediated EPSCs: failed to block; also recorded: does not block
[2]; CRF 1 μM plus 3 μM CP-154,526, n=5, P>0.05
  hippocampal field potential vs. baseline with CRF plus antagonist: 82.9±6.9%

## Nc1ncnc2c1ncn2[C@@H]1O[C@@H]2CO[P@@](O)(=S)O[C@H]2[C@H]1O [Rp-cAMPs]
[1]; Rp-cAMPs 100 μM in patch pipette, CRF 1 μM, n=4
  block of CRF-induced potentiation of NMDAR-mediated EPSCs: still observed a significant potentiation; also recorded: is not blocked

## COc1ccc2c(c1)CC[C@@H]1[C@@H]2CC[C@]2(C)[C@@H](NCCCCCCN3C(=O)C=CC3=O)CC[C@@H]12 [U-73122]
[1]; U-73122 1 μM for 10 min before and during CRF application, n=5
  block of CRF-induced potentiation of NMDAR-mediated EPSCs: no potentiation
[1]; U-73122 1 μM for 10 min before and during CRF application, n=5, listed as U73122
  block of CRF-induced potentiation of NMDAR-mediated EPSCs: is blocked

## N[C@@H](CCC(=O)O)C(=O)O [glutamate]
NMDARs
  EC50: ~1000 nM

## Antisauvagine-30
[1]; Antisauvagine-30 30 nM, CRF 1 μM, 15 mins after CRF onset, n=3, P>0.05
  NMDAR-mediated EPSC size vs. baseline with CRF in presence of antagonist: 113.9±17.7%
[1]; Antisauvagine-30 1M for 15 min (so in the source), CRF 1 μM, n=5
  block of CRF-induced potentiation of NMDAR-mediated EPSCs: inhibited; also recorded: blocks

## CRF fragment (6-33): CRF fragment that competes with CRF at the CRF-BP; CRF-BP inhibitor (ISLDLTFHLLREVLEMARAEQLAQQAHS; Corticoliberin; UniProt P06850 159-186, looked up, fragment)
[1]; CRF fragment (6-33) 1 μM for 10 min co-applied with CRF, n=5
  block of CRF-induced potentiation of NMDAR-mediated EPSCs: did not potentiate; also recorded: inhibits
CRF-BP
  affinity for CRF-BP: high-affinity binding

## CRF: Corticotrophin-releasing factor, a 41 amino acid peptide; human/rat CRF (Tocris) (SEEPPISLDLTFHLLREVLEMARAEQLAQQAHSNRKLMEII)
[1]; CRF 100 nM, 25 mins after CRF onset, n=6, P<0.05
  NMDAR-mediated EPSC size vs. baseline: 128.01±15.7%
[1]; [4]
  potentiation of NMDAR-mediated EPSCs: did not observe any effect; also recorded: do not exhibit CRF-induced potentiation
[1]; [5]
  potentiation of NMDAR-mediated EPSCs: large, slowly developing, and transient potentiation; also recorded: exhibit CRF-induced potentiation
[3]
  potentiation of AMPAR-mediated EPSCs: did not potentiate; also recorded: does not potentiate
[2]; CRF 1 μM, 15 mins after CRF onset, n=4, P<0.05
  hippocampal field potential vs. baseline: 143.0±7.7%
cAMP in Ltk- cells
  activation of cAMP: maximal activation

## Urocortin II: CRF-like peptide binding selectively to CRF-R2 (IVLSLDVPIGLLQILLEQARARAAREQATTNARILARVGHC; ends and bridges not checked; UniProt Q96RP3 72-112, looked up)
[1]; [5]
  potentiation of NMDAR-mediated EPSCs: no potentiation; also recorded: does not potentiate
CRF-BP
  affinity for CRF-BP: low affinity
CRF-R1
  affinity for CRF-R1: low affinity

## Urocortin: CRF-like peptide, possible endogenous CRF-R2 ligand, also binds CRF-BP (DNPSLSIDLTFHLLRTLLELARTQSQRERAEQNRIIFDSV; ends and bridges not checked; UniProt P55089 83-122, looked up)
[1]; [4]
  potentiation of NMDAR-mediated EPSCs: not
[1]; [5]
  potentiation of NMDAR-mediated EPSCs: potentiation; also recorded: potentiates
CRF-BP
  affinity for CRF-BP: higher affinity than CRF
CRF-R1
  affinity for CRF-R1: slightly lower affinity than CRF-R2

## ovine CRF: differs from human/rat CRF by 7 amino acids; binds CRF-R2, much lower affinity for CRF-BP
[1]; [5]
  potentiation of NMDAR-mediated EPSCs: no potentiation
[1]; peptide bath applied 1 μM for 8 min, large Ih (CRF-responding) dopamine neurons, listed as bovine CRF
  potentiation of NMDAR-mediated EPSCs: does not induce potentiation
CRF-BP
  affinity for CRF-BP: much lower affinity
